# Reference: paper PMC6429214, “Design, Synthesis and Biological Evaluation of Isoxazole-Based CK1 Inhibitors Modified with Chiral Pyrrolidine Scaffolds” (Molecules, 2019)
# What was measured:
# [1] = LC-MS of aqueous solutions with and without PEG; assay type: physicochemical; conditions: LC-MS over 7 days, not in solutions without PEG
# Description: Since all analytical data for the originally employed inhibitors was consistent with the given structures, we postulate that the incorporation of an additional methylene group occurred via spontaneous Pictet-Spengler cyclization during crystallization. In line with this notion, PEG, which has been used in our soaking solutions, is known to generate formaldehyde traces that have been shown in the past to affect the derivatization of both, proteins and ligands. To further corroborate this hypothesis, we examined whether simple exposure of 29d/e to formaldehyde would give rise to the same Pictet-Spengler products 31a/b (Scheme 5). Indeed, when compounds 29d/e were treated with formaldehyde at room temperature 31a/b were formed readily and the obtained spectroscopic data was consistent with the predicted Pictet-Spengler products. In addition, aqueous solutions of 29d and 29e with and without PEG were analyzed by liquid chromatography-mass spectrometry (LC-MS) over a period of 7 days.
# LC-MS was performed with a Bruker Esquire ~LC ion trap mass spectrometer (Bremen, Germany) in the positive ion mode (dry gas 9 L/min, nebulizer 35 psi, drying temperature 350 °C) after chromatographic separation using an Agilent 1100 HPLC system (Waldbronn, Germany) with a RP-8 column (Agilent Eclipse XDB-C8, 150 × 4.6 mm, 5 μm) and a 0.1% acetic acid/acetonitrile gradient.
# MAP3K10 = target: T1, MAP3K10 (Homo sapiens, UniProt Q02779); assay: 33PanQinase panel; assay type: biochemical; conditions: MAP3K10, 1 µM; read-out: Residual Activity (%)
# T1 construct: purchased ProQinase
# Outline: (§1)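 The compound is tested at 1 µM against a panel of 320 wild-type protein kinases. A radiometric, activity-based 33P readout gives kinase activity, reported as residual percentage of the DMSO control; final DMSO is 1%.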
# DNA-PK = target: T2, DNA-PK (Homo sapiens, UniProt P78527); assay: 33PanQinase panel; assay type: biochemical; conditions: read-out: Residual Activity (%)
# T2 construct: purchased ProQinase
# Outline: as §1
# ABL2 = target: T3, ABL2 (Homo sapiens, UniProt P42684); assay: 33PanQinase panel; assay type: biochemical; conditions: ABL2, 1 µM; read-out: Residual Activity (%)
# T3 construct: purchased ProQinase
# Outline: as §1
# PRKG1 = target: T4, PRKG1 (Homo sapiens, UniProt Q13976); assay: 33PanQinase panel; assay type: biochemical; conditions: PRKG1, 1 µM; read-out: Residual Activity (%)
# T4 construct: purchased ProQinase
# Outline: as §1
# ARK5 = target: T5, ARK5 (Homo sapiens, UniProt O60285); assay: 33PanQinase panel; assay type: biochemical; conditions: ARK5, 1 µM; read-out: Residual Activity (%)
# T5 construct: purchased ProQinase
# Outline: as §1
# COT = target: T6, COT (Homo sapiens, UniProt P41279); assay: 33PanQinase panel; assay type: biochemical; conditions: read-out: Residual Activity (%)
# T6 construct: purchased ProQinase
# Outline: as §1
# CDC42BPB = target: T7, CDC42BPB (Homo sapiens, UniProt Q9Y5S2); assay: 33PanQinase panel; assay type: biochemical; conditions: read-out: Residual Activity (%)
# T7 construct: purchased ProQinase
# Outline: as §1
# IKK-alpha = target: T8, IKK-alpha (Homo sapiens, UniProt O15111); assay: 33PanQinase panel; assay type: biochemical; conditions: read-out: Residual Activity (%)
# T8 construct: purchased ProQinase
# Outline: as §1
# TRK-B = target: T9, TRK-B (Homo sapiens, UniProt Q16620); assay: 33PanQinase panel; assay type: biochemical; conditions: read-out: Residual Activity (%)
# T9 construct: purchased ProQinase
# Outline: as §1
# CK1-gamma3 = target: T10, CK1-gamma3 (Homo sapiens, UniProt Q9Y6M4); assay: 33PanQinase panel; assay type: biochemical; conditions: CK1-gamma3, 1 µM; read-out: Residual Activity (%)
# T10 construct: purchased ProQinase
# Outline: as §1
# NEK6 = target: T11, NEK6 (Homo sapiens, UniProt Q9HC98); assay: 33PanQinase panel; assay type: biochemical; conditions: NEK6, 1 µM; read-out: Residual Activity (%)
# T11 construct: purchased ProQinase
# Outline: as §1
# MAP4K2 = target: T12, MAP4K2 (Homo sapiens, UniProt Q12851); assay: 33PanQinase panel; assay type: biochemical; conditions: MAP4K2, 1 µM; read-out: Residual Activity (%)
# T12 construct: purchased ProQinase
# Outline: as §1
# TLK1 = target: T13, TLK1 (Homo sapiens, UniProt Q9UKI8); assay: 33PanQinase panel; assay type: biochemical; conditions: TLK1, 1 µM; read-out: Residual Activity (%)
# T13 construct: purchased ProQinase
# Outline: as §1
# PASK = target: T14, PASK (Homo sapiens, UniProt Q96RG2); assay: 33PanQinase panel; assay type: biochemical; conditions: read-out: Residual Activity (%)
# T14 construct: purchased ProQinase
# Outline: as §1
# CDK8/CycC = target: T15, CDK8/CycC (Homo sapiens, UniProt P49336); assay: 33PanQinase panel; assay type: biochemical; conditions: read-out: Residual Activity (%)
# T15 construct: purchased ProQinase
# Outline: as §1
# HRI = target: T16, HRI (Homo sapiens, UniProt Q9BQI3); assay: 33PanQinase panel; assay type: biochemical; conditions: read-out: Residual Activity (%)
# T16 construct: purchased ProQinase
# Outline: as §1
# NEK2 = target: T17, NEK2 (Homo sapiens, UniProt P51955); assay: 33PanQinase panel; assay type: biochemical; conditions: NEK2, 1 µM; read-out: Residual Activity (%)
# T17 construct: purchased ProQinase
# Outline: as §1
# DYRK4 = target: T18, DYRK4 (Homo sapiens, UniProt Q9NR20); assay: 33PanQinase panel; assay type: biochemical; conditions: DYRK4, 1 µM; read-out: Residual Activity (%)
# T18 construct: purchased ProQinase
# Outline: as §1
# PAK1 = target: T19, PAK1 (Homo sapiens, UniProt Q13153); assay: 33PanQinase panel; assay type: biochemical; conditions: PAK1, 1 µM; read-out: Residual Activity (%)
# T19 construct: purchased ProQinase
# Outline: as §1
# T17 sequence (P51955 whole entry): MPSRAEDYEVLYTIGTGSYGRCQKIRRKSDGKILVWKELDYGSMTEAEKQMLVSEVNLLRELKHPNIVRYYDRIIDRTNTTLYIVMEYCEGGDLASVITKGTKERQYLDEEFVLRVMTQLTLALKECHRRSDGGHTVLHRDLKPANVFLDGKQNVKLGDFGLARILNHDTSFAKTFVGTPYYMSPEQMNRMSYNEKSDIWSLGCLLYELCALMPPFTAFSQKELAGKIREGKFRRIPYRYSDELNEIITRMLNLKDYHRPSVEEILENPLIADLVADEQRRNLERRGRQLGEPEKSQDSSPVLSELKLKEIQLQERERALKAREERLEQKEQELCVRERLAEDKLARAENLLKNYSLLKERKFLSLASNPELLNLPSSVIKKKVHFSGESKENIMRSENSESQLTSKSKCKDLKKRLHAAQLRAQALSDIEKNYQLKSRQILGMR
# T9 sequence (Q16620 32-822): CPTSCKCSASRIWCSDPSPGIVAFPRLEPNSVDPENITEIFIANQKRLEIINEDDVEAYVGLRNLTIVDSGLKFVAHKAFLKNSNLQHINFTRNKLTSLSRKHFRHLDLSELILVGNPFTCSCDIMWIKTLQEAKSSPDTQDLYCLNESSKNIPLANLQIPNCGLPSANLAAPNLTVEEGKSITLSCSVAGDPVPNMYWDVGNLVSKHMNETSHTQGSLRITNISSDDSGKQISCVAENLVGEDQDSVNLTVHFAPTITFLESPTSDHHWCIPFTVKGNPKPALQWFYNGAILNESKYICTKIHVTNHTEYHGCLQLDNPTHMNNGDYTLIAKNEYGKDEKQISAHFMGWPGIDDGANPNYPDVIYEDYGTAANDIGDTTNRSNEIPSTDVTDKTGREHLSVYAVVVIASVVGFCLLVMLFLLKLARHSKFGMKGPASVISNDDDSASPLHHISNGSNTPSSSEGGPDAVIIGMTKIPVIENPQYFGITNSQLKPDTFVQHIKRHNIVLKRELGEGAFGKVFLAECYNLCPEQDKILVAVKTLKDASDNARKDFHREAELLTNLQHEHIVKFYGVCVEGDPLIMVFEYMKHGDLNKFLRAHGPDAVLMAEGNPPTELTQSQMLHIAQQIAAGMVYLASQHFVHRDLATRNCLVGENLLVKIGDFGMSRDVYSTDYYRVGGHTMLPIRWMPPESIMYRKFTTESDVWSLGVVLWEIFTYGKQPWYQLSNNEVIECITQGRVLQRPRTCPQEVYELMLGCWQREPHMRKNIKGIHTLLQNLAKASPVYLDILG
# T14 sequence (Q96RG2 whole entry): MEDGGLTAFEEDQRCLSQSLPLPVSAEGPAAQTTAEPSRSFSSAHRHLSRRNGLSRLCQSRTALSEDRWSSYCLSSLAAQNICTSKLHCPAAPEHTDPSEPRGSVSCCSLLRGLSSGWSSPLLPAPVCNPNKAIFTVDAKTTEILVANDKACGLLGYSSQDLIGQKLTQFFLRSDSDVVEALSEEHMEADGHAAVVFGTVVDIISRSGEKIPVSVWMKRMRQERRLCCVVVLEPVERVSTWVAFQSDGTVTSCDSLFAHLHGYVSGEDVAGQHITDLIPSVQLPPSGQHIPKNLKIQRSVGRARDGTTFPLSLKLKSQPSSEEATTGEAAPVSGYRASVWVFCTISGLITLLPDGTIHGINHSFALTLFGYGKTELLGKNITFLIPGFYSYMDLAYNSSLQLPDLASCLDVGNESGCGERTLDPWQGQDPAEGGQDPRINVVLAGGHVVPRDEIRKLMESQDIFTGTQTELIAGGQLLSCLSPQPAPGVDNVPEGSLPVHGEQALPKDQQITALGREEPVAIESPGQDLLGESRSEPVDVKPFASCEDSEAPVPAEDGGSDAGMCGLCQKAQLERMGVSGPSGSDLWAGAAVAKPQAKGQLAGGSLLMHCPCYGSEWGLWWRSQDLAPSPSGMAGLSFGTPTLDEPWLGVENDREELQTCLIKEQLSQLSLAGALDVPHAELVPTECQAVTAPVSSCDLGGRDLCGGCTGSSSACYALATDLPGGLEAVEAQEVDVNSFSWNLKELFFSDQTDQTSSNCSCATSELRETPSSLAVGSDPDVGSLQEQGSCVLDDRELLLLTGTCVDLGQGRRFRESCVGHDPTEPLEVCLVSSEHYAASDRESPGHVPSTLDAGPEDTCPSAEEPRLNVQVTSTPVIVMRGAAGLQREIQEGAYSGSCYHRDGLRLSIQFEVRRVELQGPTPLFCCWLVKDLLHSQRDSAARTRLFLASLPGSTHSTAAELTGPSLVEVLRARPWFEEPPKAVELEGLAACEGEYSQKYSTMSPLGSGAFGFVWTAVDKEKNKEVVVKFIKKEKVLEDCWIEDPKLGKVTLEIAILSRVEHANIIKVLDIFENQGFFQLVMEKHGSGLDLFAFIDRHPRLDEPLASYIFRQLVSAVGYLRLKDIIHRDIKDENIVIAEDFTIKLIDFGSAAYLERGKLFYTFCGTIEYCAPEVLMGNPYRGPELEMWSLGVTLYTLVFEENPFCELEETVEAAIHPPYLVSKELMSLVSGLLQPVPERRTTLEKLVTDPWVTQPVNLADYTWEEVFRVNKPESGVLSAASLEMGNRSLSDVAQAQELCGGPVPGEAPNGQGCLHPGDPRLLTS
# T15 sequence (P49336 whole entry): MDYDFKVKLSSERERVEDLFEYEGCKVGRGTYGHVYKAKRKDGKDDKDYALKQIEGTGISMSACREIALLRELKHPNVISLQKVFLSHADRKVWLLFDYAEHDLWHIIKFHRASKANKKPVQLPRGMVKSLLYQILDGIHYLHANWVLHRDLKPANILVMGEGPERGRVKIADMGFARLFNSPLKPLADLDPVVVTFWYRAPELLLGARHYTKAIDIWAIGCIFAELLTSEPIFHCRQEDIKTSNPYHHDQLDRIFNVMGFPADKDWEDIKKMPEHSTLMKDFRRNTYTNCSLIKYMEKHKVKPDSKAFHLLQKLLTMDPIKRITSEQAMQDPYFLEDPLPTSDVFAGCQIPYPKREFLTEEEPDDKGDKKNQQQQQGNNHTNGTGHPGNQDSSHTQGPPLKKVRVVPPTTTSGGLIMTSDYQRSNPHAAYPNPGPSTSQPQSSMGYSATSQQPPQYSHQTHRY
# T15 sequence (P24863 whole entry partner): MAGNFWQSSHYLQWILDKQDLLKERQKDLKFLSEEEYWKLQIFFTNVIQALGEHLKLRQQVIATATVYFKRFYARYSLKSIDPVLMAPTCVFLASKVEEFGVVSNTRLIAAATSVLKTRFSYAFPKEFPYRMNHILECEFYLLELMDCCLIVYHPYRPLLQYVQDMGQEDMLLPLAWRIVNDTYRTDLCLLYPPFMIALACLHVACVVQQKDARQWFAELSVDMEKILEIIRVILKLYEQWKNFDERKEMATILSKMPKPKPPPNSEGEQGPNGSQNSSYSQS
# T7 sequence (Q9Y5S2 whole entry): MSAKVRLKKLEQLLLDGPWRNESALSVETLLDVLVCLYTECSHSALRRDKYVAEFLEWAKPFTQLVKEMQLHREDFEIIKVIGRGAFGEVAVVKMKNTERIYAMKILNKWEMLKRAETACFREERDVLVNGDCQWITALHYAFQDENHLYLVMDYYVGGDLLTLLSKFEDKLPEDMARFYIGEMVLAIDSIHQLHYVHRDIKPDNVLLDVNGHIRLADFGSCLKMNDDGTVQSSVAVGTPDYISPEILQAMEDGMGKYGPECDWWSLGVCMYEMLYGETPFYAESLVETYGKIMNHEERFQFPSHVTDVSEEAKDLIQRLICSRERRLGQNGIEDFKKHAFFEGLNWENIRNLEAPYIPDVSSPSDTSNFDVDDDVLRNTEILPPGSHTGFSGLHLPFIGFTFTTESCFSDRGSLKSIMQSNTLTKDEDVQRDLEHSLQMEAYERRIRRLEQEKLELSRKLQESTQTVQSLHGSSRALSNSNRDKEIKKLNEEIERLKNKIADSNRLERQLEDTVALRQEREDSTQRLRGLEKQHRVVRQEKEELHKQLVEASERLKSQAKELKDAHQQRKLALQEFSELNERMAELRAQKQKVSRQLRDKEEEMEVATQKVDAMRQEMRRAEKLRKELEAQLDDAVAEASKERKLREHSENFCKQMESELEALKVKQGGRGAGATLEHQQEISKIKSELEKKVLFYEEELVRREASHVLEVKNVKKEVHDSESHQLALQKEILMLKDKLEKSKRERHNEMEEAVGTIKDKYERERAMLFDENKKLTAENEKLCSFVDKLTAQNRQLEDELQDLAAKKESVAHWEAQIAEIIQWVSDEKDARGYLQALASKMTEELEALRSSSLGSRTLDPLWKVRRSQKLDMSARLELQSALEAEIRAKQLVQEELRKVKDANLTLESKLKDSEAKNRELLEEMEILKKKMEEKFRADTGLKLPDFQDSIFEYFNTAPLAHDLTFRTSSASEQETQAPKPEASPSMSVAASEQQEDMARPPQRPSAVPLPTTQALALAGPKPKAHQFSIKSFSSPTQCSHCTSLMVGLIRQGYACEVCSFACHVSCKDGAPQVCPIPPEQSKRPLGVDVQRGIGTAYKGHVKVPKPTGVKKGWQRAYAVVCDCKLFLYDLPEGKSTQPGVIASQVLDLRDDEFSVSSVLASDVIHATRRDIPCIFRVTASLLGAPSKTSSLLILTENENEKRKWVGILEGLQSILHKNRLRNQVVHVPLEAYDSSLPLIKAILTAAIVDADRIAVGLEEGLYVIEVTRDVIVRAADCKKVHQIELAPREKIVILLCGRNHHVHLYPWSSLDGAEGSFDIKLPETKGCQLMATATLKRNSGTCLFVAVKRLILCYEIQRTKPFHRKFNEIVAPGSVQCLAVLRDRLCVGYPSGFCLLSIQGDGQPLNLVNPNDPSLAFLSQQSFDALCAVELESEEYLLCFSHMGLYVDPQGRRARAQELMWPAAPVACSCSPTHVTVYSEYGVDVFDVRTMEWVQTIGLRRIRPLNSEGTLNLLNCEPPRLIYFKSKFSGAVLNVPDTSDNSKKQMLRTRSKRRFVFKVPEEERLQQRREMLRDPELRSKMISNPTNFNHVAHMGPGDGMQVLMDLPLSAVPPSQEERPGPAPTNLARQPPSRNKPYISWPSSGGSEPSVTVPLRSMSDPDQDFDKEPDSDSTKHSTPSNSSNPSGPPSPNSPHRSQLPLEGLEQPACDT
structure (smiles),measurement,setting,value
COc1ccc(-c2cc(C(=O)Nc3cc(-c4c(-c5ccc(F)cc5)noc4C(C)C)ccn3)n(CC3NCC(O)C3O)c2)cc1 (centres unmarked) [29d],formation of Pictet-Spengler products in aqueous solution with PEG,[1],significant product formation
same,remaining activity at 1 µM,MAP3K10,120%
same,remaining activity at 1 µM,DNA-PK,95%
same,remaining activity at 1 µM,ABL2,110%
same,remaining activity at 1 µM,PRKG1,89%
same,remaining activity at 1 µM,ARK5,100%
same,remaining activity at 1 µM,COT,89%
same,remaining activity at 1 µM,CDC42BPB,86%
same,remaining activity at 1 µM,IKK-alpha,98%
same,remaining activity at 1 µM,TRK-B,120%
same,remaining activity at 1 µM,CK1-gamma3,74%
same,remaining activity at 1 µM,NEK6,94%
same,remaining activity at 1 µM,MAP4K2,93%
same,remaining activity at 1 µM,TLK1,77%
same,remaining activity at 1 µM,PASK,99%
same,remaining activity at 1 µM,CDK8/CycC,106%
same,remaining activity at 1 µM,HRI,93%
same,remaining activity at 1 µM,NEK2,89%
same,remaining activity at 1 µM,DYRK4,80%
same,remaining activity at 1 µM,PAK1,88%
